Bridge positions count the residues as written; N and C are the ends. Square brackets hold non-standard residues; d marks the D form. Peptide text beside a SMILES is read from it. * marks the point of attachment. Bip = N[C@@H](Cc1ccc(-c2ccccc2)cc1)C(=O)O; Phe(3-Me) = Cc1cccc(C[C@H](N)C(=O)O)c1; Cha = N[C@@H](CC1CCCCC1)C(=O)O; Carboxymethyl = O=C(O)C*; NMeA = CN[C@@H](C)C(=O)O; Orn = NCCC[C@H](N)C(=O)O; Dab = NCC[C@H](N)C(=O)O
Molecular target: T1, PE-labeled human PD-L1-Ig binding to Jurkat cell line over-expressing human PD-1 (Jurkat-PD-1) (Homo sapiens, UniProt Q15116)
T1 construct: expressed in transfected cells; host or cells: Jurkat
Test: Jurkat-PD-1 Cell Binding High-Content Screening Assay (CBA): Method 1
Details: Jurkat-hPD-1 cells, PE-labeled PD-L1-Ig 20 nM final; read-out: Jurkat HPDL1 PD1 IC50 (uM) (Method 1)

T1 sequence (Q15116 25-288): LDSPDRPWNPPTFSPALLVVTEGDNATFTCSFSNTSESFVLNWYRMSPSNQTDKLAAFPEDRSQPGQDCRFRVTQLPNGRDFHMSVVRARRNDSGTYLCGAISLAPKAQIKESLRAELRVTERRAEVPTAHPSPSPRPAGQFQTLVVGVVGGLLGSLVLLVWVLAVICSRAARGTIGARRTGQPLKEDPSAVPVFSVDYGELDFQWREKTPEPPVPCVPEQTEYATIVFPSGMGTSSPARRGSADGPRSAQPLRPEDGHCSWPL

Structure (SMILES)	IC50 [µM]
Cc1cccc(C[C@@H]2NC(=O)[C@H](CC(=O)O)NC(=O)[C@H](Cc3ccc(OCC(=O)O)cc3)NC(=O)[C@H](CC(N)=O)NC(=O)CSC[C@@H](C(N)=O)NC(=O)[C@H]([C@@H](C)O)NC(=O)[C@H](C(C)C)NC(=O)[C@H](CC3CCCCC3)NC(=O)[C@H](CCN)NC(=O)[C@@H](CC(C)C)NC(=O)[C@H](C)N(C)C(=O)[C@H](Cc3ccc(OCC(=O)O)cc3)NC(=O)[C@H](Cc3ccc(-c4ccccc4)cc3)NC(=O)[C@H](Cc3ccc(OCC(=O)O)cc3)NC2=O)c1 [Compound 1666] ({CH2CO}-NY(Carboxymethyl)D[Phe(3-Me)]Y(Carboxymethyl)[Bip]Y(Carboxymethyl)[NMeA][dL][Dab][Cha]VTC-NH2; thioether N-14)	0.09
Cc1cccc(C[C@@H]2NC(=O)[C@H](CC(=O)O)NC(=O)[C@H](Cc3ccc(OCC(=O)O)cc3)NC(=O)[C@H](CC(N)=O)NC(=O)CSC[C@@H](C(N)=O)NC(=O)[C@H](CCC(=O)O)NC(=O)[C@H](C(C)C)NC(=O)[C@H](CC3CCCCC3)NC(=O)[C@H](CCN)NC(=O)[C@@H](CC(C)C)NC(=O)[C@H](C)N(C)C(=O)[C@H](Cc3ccc(OCC(=O)O)cc3)NC(=O)[C@H](Cc3ccc(-c4ccccc4)cc3)NC(=O)[C@H](Cc3ccc(OCC(=O)O)cc3)NC2=O)c1 [Compound 1667] ({CH2CO}-NY(Carboxymethyl)D[Phe(3-Me)]Y(Carboxymethyl)[Bip]Y(Carboxymethyl)[NMeA][dL][Dab][Cha]VEC-NH2; thioether N-14)	0.11
Cc1cccc(C[C@@H]2NC(=O)[C@H](CC(=O)O)NC(=O)[C@H](Cc3ccc(OCC(=O)O)cc3)NC(=O)[C@H]([C@@H](C)O)NC(=O)CSC[C@@H](C(N)=O)NC(=O)[C@H](CCC(N)=O)NC(=O)[C@H](C(C)C)NC(=O)[C@H](CC3CCCCC3)NC(=O)[C@H](CCN)NC(=O)[C@@H](CC(C)C)NC(=O)[C@H](C)N(C)C(=O)[C@H](Cc3ccc(OCC(=O)O)cc3)NC(=O)[C@H](Cc3ccc(-c4ccccc4)cc3)NC(=O)[C@H](Cc3ccc(OCC(=O)O)cc3)NC2=O)c1 [Compound 1671] ({CH2CO}-TY(Carboxymethyl)D[Phe(3-Me)]Y(Carboxymethyl)[Bip]Y(Carboxymethyl)[NMeA][dL][Dab][Cha]VQC-NH2; thioether N-14)	0.09
Cc1cccc(C[C@@H]2NC(=O)[C@H](CC(=O)O)NC(=O)[C@H](Cc3ccc(OCC(=O)O)cc3)NC(=O)[C@H]([C@@H](C)O)NC(=O)CSC[C@@H](C(N)=O)NC(=O)[C@H]([C@@H](C)O)NC(=O)[C@H](C(C)C)NC(=O)[C@H](CC3CCCCC3)NC(=O)[C@H](CCN)NC(=O)[C@@H](CC(C)C)NC(=O)[C@H](C)N(C)C(=O)[C@H](Cc3ccc(OCC(=O)O)cc3)NC(=O)[C@H](Cc3ccc(-c4ccccc4)cc3)NC(=O)[C@H](Cc3ccc(OCC(=O)O)cc3)NC2=O)c1 [Compound 1672] ({CH2CO}-TY(Carboxymethyl)D[Phe(3-Me)]Y(Carboxymethyl)[Bip]Y(Carboxymethyl)[NMeA][dL][Dab][Cha]VTC-NH2; thioether N-14)	0.09
Cc1cccc(C[C@@H]2NC(=O)[C@H](CC(=O)O)NC(=O)[C@H](Cc3ccc(OCC(=O)O)cc3)NC(=O)[C@H]([C@@H](C)O)NC(=O)CSC[C@@H](C(N)=O)NC(=O)[C@H](CCC(=O)O)NC(=O)[C@H](C(C)C)NC(=O)[C@H](CC3CCCCC3)NC(=O)[C@H](CCN)NC(=O)[C@@H](CC(C)C)NC(=O)[C@H](C)N(C)C(=O)[C@H](Cc3ccc(OCC(=O)O)cc3)NC(=O)[C@H](Cc3ccc(-c4ccccc4)cc3)NC(=O)[C@H](Cc3ccc(OCC(=O)O)cc3)NC2=O)c1 [Compound 1673] ({CH2CO}-TY(Carboxymethyl)D[Phe(3-Me)]Y(Carboxymethyl)[Bip]Y(Carboxymethyl)[NMeA][dL][Dab][Cha]VEC-NH2; thioether N-14)	0.09
Cc1cccc(C[C@@H]2NC(=O)[C@H](CC(=O)O)NC(=O)[C@H](Cc3ccc(OCC(=O)O)cc3)NC(=O)[C@H]([C@@H](C)O)NC(=O)CSC[C@@H](C(N)=O)NC(=O)[C@H](CC(N)=O)NC(=O)[C@H](C(C)C)NC(=O)[C@H](CC3CCCCC3)NC(=O)[C@H](CC(N)=O)NC(=O)[C@@H](CC(C)C)NC(=O)[C@H](C)N(C)C(=O)[C@H](Cc3ccc(OCC(=O)O)cc3)NC(=O)[C@H](Cc3ccc(-c4ccccc4)cc3)NC(=O)[C@H](Cc3ccc(OCC(=O)O)cc3)NC2=O)c1 [Compound 1675] ({CH2CO}-TY(Carboxymethyl)D[Phe(3-Me)]Y(Carboxymethyl)[Bip]Y(Carboxymethyl)[NMeA][dL]N[Cha]VNC-NH2; thioether N-14)	0.12
Cc1cccc(C[C@@H]2NC(=O)[C@H](CC(=O)O)NC(=O)[C@H](Cc3ccc(OCC(=O)O)cc3)NC(=O)[C@H]([C@@H](C)O)NC(=O)CSC[C@@H](C(N)=O)NC(=O)[C@H](CC(=O)O)NC(=O)[C@H](C(C)C)NC(=O)[C@H](CC3CCCCC3)NC(=O)[C@H](CC(N)=O)NC(=O)[C@@H](CC(C)C)NC(=O)[C@H](C)N(C)C(=O)[C@H](Cc3ccc(OCC(=O)O)cc3)NC(=O)[C@H](Cc3ccc(-c4ccccc4)cc3)NC(=O)[C@H](Cc3ccc(OCC(=O)O)cc3)NC2=O)c1 [Compound 1676] ({CH2CO}-TY(Carboxymethyl)D[Phe(3-Me)]Y(Carboxymethyl)[Bip]Y(Carboxymethyl)[NMeA][dL]N[Cha]VDC-NH2; thioether N-14)	0.24
Cc1cccc(C[C@@H]2NC(=O)[C@H](CC(=O)O)NC(=O)[C@H](Cc3ccc(OCC(=O)O)cc3)NC(=O)[C@H]([C@@H](C)O)NC(=O)CSC[C@@H](C(N)=O)NC(=O)[C@H](CCC(N)=O)NC(=O)[C@H](C(C)C)NC(=O)[C@H](CC3CCCCC3)NC(=O)[C@H](CC(N)=O)NC(=O)[C@@H](CC(C)C)NC(=O)[C@H](C)N(C)C(=O)[C@H](Cc3ccc(OCC(=O)O)cc3)NC(=O)[C@H](Cc3ccc(-c4ccccc4)cc3)NC(=O)[C@H](Cc3ccc(OCC(=O)O)cc3)NC2=O)c1 [Compound 1677] ({CH2CO}-TY(Carboxymethyl)D[Phe(3-Me)]Y(Carboxymethyl)[Bip]Y(Carboxymethyl)[NMeA][dL]N[Cha]VQC-NH2; thioether N-14)	0.16

Continued, values first:

IC50 [µM]	Structure (SMILES)
0.09	Cc1cccc(C[C@@H]2NC(=O)[C@H](CC(=O)O)NC(=O)[C@H](Cc3ccc(OCC(=O)O)cc3)NC(=O)[C@H](CC(N)=O)NC(=O)CSC[C@@H](C(N)=O)NC(=O)[C@H](CCC(N)=O)NC(=O)[C@H](C(C)C)NC(=O)[C@H](CC3CCCCC3)NC(=O)[C@H](CCN)NC(=O)[C@@H](CC(C)C)NC(=O)[C@H](C)N(C)C(=O)[C@H](Cc3ccc(OCC(=O)O)cc3)NC(=O)[C@H](Cc3ccc(-c4ccccc4)cc3)NC(=O)[C@H](Cc3ccc(OCC(=O)O)cc3)NC2=O)c1 [Compound 1665] ({CH2CO}-NY(Carboxymethyl)D[Phe(3-Me)]Y(Carboxymethyl)[Bip]Y(Carboxymethyl)[NMeA][dL][Dab][Cha]VQC-NH2; thioether N-14)
0.05	Cc1cccc(C[C@@H]2NC(=O)[C@H](CC(=O)O)NC(=O)[C@H](Cc3ccc(OCC(=O)O)cc3)NC(=O)[C@H](CC(N)=O)NC(=O)CSC[C@@H](C(N)=O)NC(=O)[C@H](CCCN)NC(=O)[C@H](C(C)C)NC(=O)[C@H](CC3CCCCC3)NC(=O)[C@H](CCN)NC(=O)[C@@H](CC(C)C)NC(=O)[C@H](C)N(C)C(=O)[C@H](Cc3ccc(OCC(=O)O)cc3)NC(=O)[C@H](Cc3ccc(-c4ccccc4)cc3)NC(=O)[C@H](Cc3ccc(OCC(=O)O)cc3)NC2=O)c1 [Compound 1668] ({CH2CO}-NY(Carboxymethyl)D[Phe(3-Me)]Y(Carboxymethyl)[Bip]Y(Carboxymethyl)[NMeA][dL][Dab][Cha]V[Orn]C-NH2; thioether N-14)
0.06	Cc1cccc(C[C@@H]2NC(=O)[C@H](CC(=O)O)NC(=O)[C@H](Cc3ccc(OCC(=O)O)cc3)NC(=O)[C@H]([C@@H](C)O)NC(=O)CSC[C@@H](C(N)=O)NC(=O)[C@H](CC(N)=O)NC(=O)[C@H](C(C)C)NC(=O)[C@H](CC3CCCCC3)NC(=O)[C@H](CCN)NC(=O)[C@@H](CC(C)C)NC(=O)[C@H](C)N(C)C(=O)[C@H](Cc3ccc(OCC(=O)O)cc3)NC(=O)[C@H](Cc3ccc(-c4ccccc4)cc3)NC(=O)[C@H](Cc3ccc(OCC(=O)O)cc3)NC2=O)c1 [Compound 1669] ({CH2CO}-TY(Carboxymethyl)D[Phe(3-Me)]Y(Carboxymethyl)[Bip]Y(Carboxymethyl)[NMeA][dL][Dab][Cha]VNC-NH2; thioether N-14)
0.08	Cc1cccc(C[C@@H]2NC(=O)[C@H](CC(=O)O)NC(=O)[C@H](Cc3ccc(OCC(=O)O)cc3)NC(=O)[C@H]([C@@H](C)O)NC(=O)CSC[C@@H](C(N)=O)NC(=O)[C@H](CC(=O)O)NC(=O)[C@H](C(C)C)NC(=O)[C@H](CC3CCCCC3)NC(=O)[C@H](CCN)NC(=O)[C@@H](CC(C)C)NC(=O)[C@H](C)N(C)C(=O)[C@H](Cc3ccc(OCC(=O)O)cc3)NC(=O)[C@H](Cc3ccc(-c4ccccc4)cc3)NC(=O)[C@H](Cc3ccc(OCC(=O)O)cc3)NC2=O)c1 [Compound 1670] ({CH2CO}-TY(Carboxymethyl)D[Phe(3-Me)]Y(Carboxymethyl)[Bip]Y(Carboxymethyl)[NMeA][dL][Dab][Cha]VDC-NH2; thioether N-14)
0.07	Cc1cccc(C[C@@H]2NC(=O)[C@H](CC(=O)O)NC(=O)[C@H](Cc3ccc(OCC(=O)O)cc3)NC(=O)[C@H]([C@@H](C)O)NC(=O)CSC[C@@H](C(N)=O)NC(=O)[C@H](CCCN)NC(=O)[C@H](C(C)C)NC(=O)[C@H](CC3CCCCC3)NC(=O)[C@H](CCN)NC(=O)[C@@H](CC(C)C)NC(=O)[C@H](C)N(C)C(=O)[C@H](Cc3ccc(OCC(=O)O)cc3)NC(=O)[C@H](Cc3ccc(-c4ccccc4)cc3)NC(=O)[C@H](Cc3ccc(OCC(=O)O)cc3)NC2=O)c1 [Compound 1674] ({CH2CO}-TY(Carboxymethyl)D[Phe(3-Me)]Y(Carboxymethyl)[Bip]Y(Carboxymethyl)[NMeA][dL][Dab][Cha]V[Orn]C-NH2; thioether N-14)

Reference: US20240409585A1, “MACROCYCLIC IMMUNOMODULATORS” (priority 2021, published 2024)
